# According to ChEMBL document CHEMBL1201861, “Genomics of Drug Sensitity in Cancer screening data, Wellcome Trust Sanger Institute”:
# What was measured:
# Assay in all cases: cells
# CW-2 = type: functional, cell-based, Homo sapiens; conditions: Homo sapiens, CW-2;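 also: growth inhibition of CW-2 cells, read out by a cell viability assay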
# Description: SANGER: Inhibition of human CW-2 cell growth in a cell viability assay.
# D-542MG = type: functional, cell-based, Homo sapiens; conditions: Homo sapiens, D-542MG
# Description: SANGER: Inhibition of human D-542MG cell growth in a cell viability assay.
# Detroit 562 = type: functional, cell-based, Homo sapiens; conditions: Homo sapiens, Detroit 562;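 also: growth inhibition of human Detroit 562 cells, read out by a cell viability assay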
# Description: SANGER: Inhibition of human Detroit562 cell growth in a cell viability assay.
# EW-3 = type: functional, cell-based; conditions: Homo sapiens;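 also: cell viability assay read-out, IC50 reflects inhibition of growth of the EW-3 cells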
# Description: SANGER: Inhibition of human EW-3 cell growth in a cell viability assay.
# FTC-133 = type: functional, cell-based, Homo sapiens; conditions: Homo sapiens, FTC-133
# GAK = type: functional, cell-based, Homo sapiens; conditions: Homo sapiens, GAK;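 also: cell growth inhibition read out by a cell viability assay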
# Description: SANGER: Inhibition of human GAK cell growth in a cell viability assay.
# GOTO = type: functional, cell-based, Homo sapiens; conditions: Homo sapiens, GOTO;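 also: growth inhibition of GOTO cells, read out by a cell viability assay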
# Description: SANGER: Inhibition of human GOTO cell growth in a cell viability assay.
# HCC38 = type: functional, cell-based, Homo sapiens; conditions: Homo sapiens, HCC38;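 also: cell viability assay on the human HCC38 cell line, with IC50 marking the concentration that inhibits cell growth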
# Description: SANGER: Inhibition of human HCC38 cell growth in a cell viability assay.
# HCT-116 = type: functional, cell-based, Homo sapiens; conditions: Homo sapiens, HCT-116
# Description: SANGER: Inhibition of human HCT-116 cell growth in a cell viability assay.
# HOS = type: functional, cell-based, Homo sapiens; conditions: Homo sapiens, HOS;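 also: growth inhibition of human HOS cells, read out with a cell viability assay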
# Description: SANGER: Inhibition of human HOS cell growth in a cell viability assay.
# HPAF-II = type: functional, cell-based, Homo sapiens; conditions: Homo sapiens, HPAF-II;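 also: growth inhibition of HPAF-II cells, read out with a cell viability assay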
# Description: SANGER: Inhibition of human HPAF-II cell growth in a cell viability assay.
# HT-144 = type: functional, cell-based, Homo sapiens; conditions: Homo sapiens, HT-144
# Description: SANGER: Inhibition of human HT-144 cell growth in a cell viability assay.
# JEG-3 = type: functional, cell-based, Homo sapiens; conditions: Homo sapiens, JEG-3;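 also: growth inhibition of human JEG-3 cells, read out with a cell viability assay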
# Description: SANGER: Inhibition of human JEG-3 cell growth in a cell viability assay.
# KP-N-YN = type: functional, cell-based; conditions: Homo sapiens;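 also: growth inhibition of KP-N-YN cells, read out with a cell viability assay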
# Description: SANGER: Inhibition of human KP-N-YN cell growth in a cell viability assay.
# KU-19-19 = type: functional, cell-based, Homo sapiens; conditions: Homo sapiens, KU-19-19
# Description: SANGER: Inhibition of human KU-19-19 cell growth in a cell viability assay.
# L-363 = type: functional, cell-based; conditions: Homo sapiens
# Description: SANGER: Inhibition of human L-363 cell growth in a cell viability assay.
# L-428 = type: functional, cell-based; conditions: Homo sapiens
# Description: SANGER: Inhibition of human L-428 cell growth in a cell viability assay.
# LB996-RCC = type: functional, cell-based; conditions: Homo sapiens
# Description: SANGER: Inhibition of human LB996-RCC cell growth in a cell viability assay.
# LS-513 = type: functional, cell-based, Homo sapiens; conditions: Homo sapiens, LS-513
# Description: SANGER: Inhibition of human LS-513 cell growth in a cell viability assay.
# MFE-280 = type: functional, cell-based, Homo sapiens; conditions: Homo sapiens, MFE-280;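 also: growth inhibition of MFE-280 cells, determined with a cell viability readout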
# Description: SANGER: Inhibition of human MFE-280 cell growth in a cell viability assay.
# ML-2 = type: functional, cell-based; conditions: Homo sapiens;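 also: growth inhibition of ML-2 cells, measured with a cell viability readout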
# Description: SANGER: Inhibition of human ML-2 cell growth in a cell viability assay.
# NB10 = type: functional, cell-based, Homo sapiens; conditions: Homo sapiens, NB10;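 also: growth inhibition of NB10 cells, read out by a cell viability assay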
# Description: SANGER: Inhibition of human NB10 cell growth in a cell viability assay.
# NB13 = type: functional, cell-based, Homo sapiens; conditions: Homo sapiens, NB13;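 also: cell viability readout measuring growth inhibition of human NB13 cells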
# Description: SANGER: Inhibition of human NB13 cell growth in a cell viability assay.
# NB6 = type: functional, cell-based, Homo sapiens; conditions: Homo sapiens, NB6
# Description: SANGER: Inhibition of human NB6 cell growth in a cell viability assay.
# NB69 = type: functional, cell-based, Homo sapiens; conditions: Homo sapiens, NB69;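 also: growth inhibition of NB69 cells, determined by a cell viability assay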
# Description: SANGER: Inhibition of human NB69 cell growth in a cell viability assay.
# NCI-H1650 = type: functional, cell-based, Homo sapiens; conditions: Homo sapiens, NCI-H1650;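 also: growth inhibition of human NCI-H1650 cells measured by a cell viability assay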
# Description: SANGER: Inhibition of human NCI-H1650 cell growth in a cell viability assay.
# NCI-H2052 = type: functional, cell-based, Homo sapiens; conditions: Homo sapiens, NCI-H2052;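 also: growth inhibition of NCI-H2052 cells, read out with a cell viability assay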
# Description: SANGER: Inhibition of human NCI-H2052 cell growth in a cell viability assay.
# NCI-H441 = type: functional, cell-based; conditions: Homo sapiens;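 also: growth inhibition of NCI-H441 cells, read out with a cell viability assay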
# Description: SANGER: Inhibition of human NCI-H441 cell growth in a cell viability assay.
# NCI-H526 = type: functional, cell-based; conditions: Homo sapiens;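 also: growth inhibition of the human NCI-H526 cell line, measured by a cell viability assay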
# Description: SANGER: Inhibition of human NCI-H526 cell growth in a cell viability assay.
# NCI-H69 = type: functional, cell-based; conditions: Homo sapiens;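 also: growth inhibition of the cell line, read out with a cell viability assay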
# Description: SANGER: Inhibition of human NCI-H69 cell growth in a cell viability assay.
# OMC-1 = type: functional, cell-based, Homo sapiens; conditions: Homo sapiens, OMC-1;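 also: growth inhibition of the OMC-1 cell line, measured by a cell viability assay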
# Description: SANGER: Inhibition of human OMC-1 cell growth in a cell viability assay.
# QIMR-WIL = type: functional, cell-based; conditions: Homo sapiens;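 also: growth inhibition of QIMR-WIL cells, read out with a cell viability assay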
# Description: SANGER: Inhibition of human QIMR-WIL cell growth in a cell viability assay.
# SCH = type: functional, cell-based, Homo sapiens; conditions: Homo sapiens, SCH;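 also: growth inhibition of human SCH cells, read out in a cell viability assay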
# Description: SANGER: Inhibition of human SCH cell growth in a cell viability assay.
# SK-MEL-24 = type: functional, cell-based; conditions: Homo sapiens;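 also: growth inhibition read out by a cell viability assay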
# Description: SANGER: Inhibition of human SK-MEL-24 cell growth in a cell viability assay.
# SK-MEL3 = type: functional, cell-based, Homo sapiens, SK-MEL-3; conditions: Homo sapiens, SK-MEL3;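 also: growth inhibition of human SK-MEL-3 cells, read out with a cell viability assay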
# Description: SANGER: Inhibition of human SK-MEL-3 cell growth in a cell viability assay.
# SK-MEL-30 = type: functional, cell-based; conditions: Homo sapiens;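 also: growth inhibition of SK-MEL-30 cells, determined with a cell viability assay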
# Description: SANGER: Inhibition of human SK-MEL-30 cell growth in a cell viability assay.
# SK-MES-1 = type: functional, cell-based, Homo sapiens; conditions: Homo sapiens, SK-MES-1;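 also: growth inhibition of human SK-MES-1 cells, read out with a cell viability assay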
# Description: SANGER: Inhibition of human SK-MES-1 cell growth in a cell viability assay.
# SW1088 = type: functional, cell-based, Homo sapiens; conditions: Homo sapiens, SW1088;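 also: growth inhibition of human SW1088 cells, read out by a cell viability assay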
# Description: SANGER: Inhibition of human SW1088 cell growth in a cell viability assay.
# SW1463 = type: functional, cell-based, Homo sapiens; conditions: Homo sapiens, SW1463;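 also: growth inhibition of SW1463 cells, determined with a cell viability assay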
# Description: SANGER: Inhibition of human SW1463 cell growth in a cell viability assay.
# SW1710 = type: functional, cell-based, Homo sapiens; conditions: Homo sapiens, SW1710;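 also: growth inhibition of SW1710 cells, determined with a cell viability assay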
# Description: SANGER: Inhibition of human SW1710 cell growth in a cell viability assay.
# T47D = type: functional, cell-based, Homo sapiens; conditions: Homo sapiens, T47D;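 also: growth inhibition of human T47D cells, measured with a cell viability assay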
# Description: SANGER: Inhibition of human T47D cell growth in a cell viability assay.
# 5637 = type: functional, cell-based, Homo sapiens; conditions: Homo sapiens
# Description: SANGER: Inhibition of human 5637 cell growth in a cell viability assay.
# 639-V = type: functional, cell-based, Homo sapiens; conditions: Homo sapiens, 639-V;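 also: growth inhibition of 639-V cells, read out with a cell viability assay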
# Description: SANGER: Inhibition of human 639-V cell growth in a cell viability assay.
# 769-P = type: functional, cell-based, Homo sapiens; conditions: Homo sapiens, 769-P
# Description: SANGER: Inhibition of human 769-P cell growth in a cell viability assay.
# C3A = type: functional, cell-based, Homo sapiens; conditions: Homo sapiens, C3A;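 also: growth inhibition of C3A human cells, quantified with a cell viability readout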
# Description: SANGER: Inhibition of human C3A cell growth in a cell viability assay.
# CAL-27 = type: functional, cell-based, Homo sapiens; conditions: Homo sapiens, CAL-27;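 also: Viability-based readout, IC50 reflecting inhibition of CAL-27 cell growth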
# Description: SANGER: Inhibition of human CAL-27 cell growth in a cell viability assay.
# U-118-MG = type: functional, cell-based, Homo sapiens; conditions: Homo sapiens, U-118-MG
# Description: SANGER: Inhibition of human U-118-MG cell growth in a cell viability assay.
# UMUC3 = type: functional, cell-based, Homo sapiens; conditions: Homo sapiens, UMUC3;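 also: growth inhibition of human UM-UC-3 cells, read out with a cell viability assay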
# Description: SANGER: Inhibition of human UM-UC-3 cell growth in a cell viability assay.
# VM-CUB-1 = type: functional, cell-based; conditions: Homo sapiens;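 also: cell viability assay measuring growth inhibition of the human VM-CUB-1 cell line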
# Description: SANGER: Inhibition of human VM-CUB-1 cell growth in a cell viability assay.
# CAS-1 = type: functional, cell-based, Homo sapiens; conditions: Homo sapiens, CAS-1;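 also: growth inhibition of CAS-1 cells, measured with a cell viability assay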
# Description: SANGER: Inhibition of human CAS-1 cell growth in a cell viability assay.
# COLO-320-HSR = type: functional, cell-based; conditions: Homo sapiens;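 also: growth inhibition of COLO-320-HSR cells, determined with a cell viability assay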
# Description: SANGER: Inhibition of human COLO-320-HSR cell growth in a cell viability assay.
# COLO-678 = type: functional, cell-based, Homo sapiens; conditions: Homo sapiens, COLO-678
# Description: SANGER: Inhibition of human COLO-678 cell growth in a cell viability assay.
smiles,measurement,setting,value
CCOc1nc(NC(=O)Cc2cc(OC)ccc2OC)cc(N)c1C#N,IC50,CW-2,> 10 µM
same,IC50,D-542MG,> 10 µM
same,IC50,Detroit 562,> 10 µM
same,IC50,EW-3,> 10 µM
same,IC50,FTC-133,> 10 µM
same,IC50,GAK,> 10 µM
same,IC50,GOTO,> 10 µM
same,IC50,HCC38,> 10 µM
same,IC50,HCT-116,> 10 µM
same,IC50,HOS,> 10 µM
same,IC50,HPAF-II,> 10 µM
same,IC50,HT-144,> 10 µM
same,IC50,JEG-3,> 10 µM
same,IC50,KP-N-YN,> 10 µM
same,IC50,KU-19-19,> 10 µM
same,IC50,L-363,> 10 µM
same,IC50,L-428,> 10 µM
same,IC50,LB996-RCC,> 10 µM
same,IC50,LS-513,> 10 µM
same,IC50,MFE-280,> 10 µM
same,IC50,ML-2,> 10 µM
same,IC50,NB10,> 10 µM
same,IC50,NB13,> 10 µM
same,IC50,NB6,> 10 µM
same,IC50,NB69,> 10 µM
same,IC50,NCI-H1650,> 10 µM
same,IC50,NCI-H2052,> 10 µM
same,IC50,NCI-H441,> 10 µM
same,IC50,NCI-H526,> 10 µM
same,IC50,NCI-H69,> 10 µM
same,IC50,OMC-1,> 10 µM
same,IC50,QIMR-WIL,> 10 µM
same,IC50,SCH,> 10 µM
same,IC50,SK-MEL-24,> 10 µM
same,IC50,SK-MEL3,> 10 µM
same,IC50,SK-MEL-30,> 10 µM
same,IC50,SK-MES-1,> 10 µM
same,IC50,SW1088,> 10 µM
same,IC50,SW1463,> 10 µM
same,IC50,SW1710,> 10 µM
same,IC50,T47D,> 10 µM
same,IC50,5637,> 10 µM
same,IC50,639-V,> 10 µM
same,IC50,769-P,> 10 µM
same,IC50,C3A,> 10 µM
same,IC50,CAL-27,> 10 µM
same,IC50,U-118-MG,> 10 µM
same,IC50,UMUC3,> 10 µM
same,IC50,VM-CUB-1,> 10 µM
same,IC50,CAS-1,> 10 µM
same,IC50,COLO-320-HSR,> 10 µM
same,IC50,COLO-678,> 10 µM
C=CCNC1=C2C[C@@H](C)C[C@H](OC)[C@H](O)[C@@H](C)/C=C(\C)[C@H](OC(N)=O)[C@@H](OC)/C=C\C=C(/C)C(=O)NC(=CC1=O)C2=O [TANESPIMYCIN],IC50,CW-2,> 1 µM
same,IC50,D-542MG,> 1 µM
same,IC50,Detroit 562,0.0424 µM
same,IC50,EW-3,0.127 µM
same,IC50,FTC-133,0.165 µM
same,IC50,GAK,0.136 µM
same,IC50,GOTO,0.452 µM
same,IC50,HCC38,0.301 µM
same,IC50,HCT-116,0.266 µM
same,IC50,HOS,0.417 µM
same,IC50,HPAF-II,0.213 µM
same,IC50,HT-144,0.0309 µM
same,IC50,JEG-3,0.187 µM
same,IC50,KP-N-YN,> 1 µM
same,IC50,KU-19-19,> 1 µM
same,IC50,L-363,0.0821 µM
same,IC50,L-428,> 1 µM
same,IC50,LB996-RCC,0.336 µM
same,IC50,LS-513,0.24 µM
same,IC50,MFE-280,0.213 µM
same,IC50,ML-2,0.231 µM
same,IC50,NB10,> 1 µM
same,IC50,NB13,0.368 µM
same,IC50,NB6,> 1 µM
same,IC50,NB69,0.271 µM
same,IC50,NCI-H1650,0.201 µM
same,IC50,NCI-H2052,> 1 µM
same,IC50,NCI-H441,> 1 µM
same,IC50,NCI-H526,> 1 µM
same,IC50,NCI-H69,0.976 µM
same,IC50,OMC-1,0.118 µM
same,IC50,QIMR-WIL,0.851 µM
same,IC50,SCH,> 1 µM
same,IC50,SK-MEL-24,0.139 µM
same,IC50,SK-MEL3,0.815 µM
same,IC50,SK-MEL-30,0.912 µM
same,IC50,SK-MES-1,0.0361 µM
same,IC50,SW1088,0.164 µM
same,IC50,SW1463,> 1 µM
same,IC50,SW1710,0.295 µM
same,IC50,T47D,> 1 µM
same,IC50,5637,0.0574 µM
same,IC50,639-V,0.15 µM
same,IC50,769-P,0.213 µM
same,IC50,C3A,0.454 µM
same,IC50,CAL-27,0.19 µM
same,IC50,U-118-MG,0.276 µM
same,IC50,UMUC3,0.455 µM
same,IC50,VM-CUB-1,0.0366 µM
same,IC50,CAS-1,> 1 µM
same,IC50,COLO-320-HSR,> 1 µM
same,IC50,COLO-678,0.24 µM
CC(=O)O[C@@H]1[C@@H](OC(C)=O)[C@@H](O)[C@H](Oc2c(-c3ccc(O)cc3)oc3cc(O)cc(O)c3c2=O)O[C@H]1C,IC50,CW-2,> 10 µM
same,IC50,D-542MG,> 10 µM
same,IC50,Detroit 562,> 10 µM
same,IC50,EW-3,> 10 µM
same,IC50,FTC-133,> 10 µM
same,IC50,GAK,> 10 µM
same,IC50,GOTO,> 10 µM
same,IC50,HCC38,> 10 µM
same,IC50,HCT-116,> 10 µM
same,IC50,HOS,> 10 µM
same,IC50,HPAF-II,> 10 µM
same,IC50,HT-144,> 10 µM
same,IC50,JEG-3,> 10 µM
same,IC50,KP-N-YN,> 10 µM
same,IC50,KU-19-19,> 10 µM
same,IC50,L-363,> 10 µM
same,IC50,L-428,> 10 µM
same,IC50,LB996-RCC,> 10 µM
same,IC50,LS-513,> 10 µM
same,IC50,MFE-280,> 10 µM
same,IC50,ML-2,> 10 µM
same,IC50,NB10,> 10 µM
same,IC50,NB13,> 10 µM
same,IC50,NB6,> 10 µM
same,IC50,NB69,> 10 µM
same,IC50,NCI-H1650,> 10 µM
same,IC50,NCI-H2052,> 10 µM
same,IC50,NCI-H441,> 10 µM
same,IC50,NCI-H526,> 10 µM
same,IC50,NCI-H69,> 10 µM
same,IC50,QIMR-WIL,> 10 µM
same,IC50,SCH,> 10 µM
same,IC50,SK-MEL-24,> 10 µM
same,IC50,SK-MEL3,7.74 µM
same,IC50,SK-MEL-30,> 10 µM
same,IC50,SK-MES-1,> 10 µM
same,IC50,SW1088,> 10 µM
same,IC50,SW1463,> 10 µM
same,IC50,SW1710,> 10 µM
same,IC50,T47D,> 10 µM
same,IC50,5637,> 10 µM
same,IC50,639-V,> 10 µM
same,IC50,769-P,> 10 µM
same,IC50,C3A,> 10 µM
same,IC50,CAL-27,> 10 µM
same,IC50,U-118-MG,> 10 µM
same,IC50,UMUC3,> 10 µM
same,IC50,VM-CUB-1,> 10 µM
same,IC50,CAS-1,> 10 µM
same,IC50,COLO-320-HSR,> 10 µM
same,IC50,COLO-678,> 10 µM
